Laboratory results as given in US20190328667A1, “DRUG-POLYMER PARTICLES WITH SUSTAINED RELEASE PROPERTIES” (University of Washington, priority 2016, published 2019).

Key:
[1] = cited from earlier work
[2] = Maximum lopinavir concentration in suspension after thermal treatment (LC-MS/MS); type: physicochemical; conditions: after thermal treatment (melt-quench), normalized to lopinavir content
Description: Lopinavir in suspension was measured in μg/mL.

Row | SMILES | Log D [1] | Maximum drug concentration in suspension [2]
1 | Cc1cccc(C)c1OCC(=O)N[C@@H](Cc1ccccc1)[C@@H](O)C[C@H](Cc1ccccc1)NC(=O)[C@H](C(C)C)N1CCCNC1=O [Lopinavir, lopinavir] | 4.6 | 
2 | CC(C)c1nc(CN(C)C(=O)N[C@H](C(=O)N[C@@H](Cc2ccccc2)C[C@H](O)[C@H](Cc2ccccc2)NC(=O)OCc2cncs2)C(C)C)cs1 [Ritonavir, ritonavir] | 5.7 | 
3 | Nc1ccn([C@@H]2CS[C@H](CO)O2)c(=O)n1 [Lamivudine, lamivudine] | −1.1 | 
4 | Cc1cccc(C)c1OCC(=O)N[C@@H](Cc1ccccc1)[C@@H](O)C[C@H](Cc1ccccc1)NC(=O)[C@H](C(C)C)N1CCCNC1=O [Lopinavir (amorphous), lopinavir] |  | 322.00 µg/mL
